Test results as given in PubChem BioAssay (NCI).
Values joined by “and” are separate entries in the source; they are usually repeats but may differ in a detail not shown here. Identical values can stand only once.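 Interpolation was linear, between the two tested concentrations surrounding the appropriate level; five concentrations were tested over 48 hours in 96-well plates. GI50: concentration for 50% inhibition of growth. TGI: concentration producing complete growth inhibition.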

Assays:
Experiment in all cases: growth of human tumour cells (NCI), 48 h
[1] = tested on: BT-549 breast
[2] = tested on: COLO 205 colon
[3] = tested on: DU-145 prostate
[4] = tested on: HOP-92 NSCLC
[5] = tested on: LOX IMVI melanoma
[6] = tested on: NCI-H522 lung
[7] = tested on: SK-OV-3 ovarian
[8] = tested on: T-47D breast
[9] = tested on: U251 CNS
[10] = tested on: UACC-62 melanoma

| SMILES | GI50 [1] | TGI [1] | GI50 [2] | TGI [2] | GI50 [3] | TGI [3] | GI50 [4] | TGI [4] | GI50 [5] | TGI [5] | GI50 [6] | TGI [6] | GI50 [7] | TGI [7] | GI50 [8] | TGI [8] | GI50 [9] | TGI [9] | GI50 [10] | TGI [10] |
| --- | --- | --- | --- | --- | --- | --- | --- | --- | --- | --- | --- | --- | --- | --- | --- | --- | --- | --- | --- | --- |
| Cc1cc2nc3c4cc(Cl)ccc4n(CCN(C)C)c3nc2cc1C | 2.53 µM | 8.19 µM | 1.28 µM | 3.24 µM | 2.14 µM | 4.62 µM | 0.498 µM | 3.61 µM | 1.13 µM | 2.37 µM | 1.41 µM | 3.27 µM | 2.75 µM | 10.6 µM | 2.98 µM | 16.6 µM | 1.43 µM | 3.14 µM | 1.65 µM | 3.3 µM |
| O=C(c1cccs1)c1c(C(F)(F)F)n([O-])c2ccccc2[n+]1=O | 0.908 µM | 2.37 µM | 1.66 µM | 9.89 µM | 0.695 µM | 1.34 µM | 0.99 µM | 2.28 µM | 0.448 µM | 1.12 µM | 0.125 µM | 1.54 µM | 2.11 µM | 7.56 µM | 4.38 µM | 11.2 µM | 1.07 µM | 2.79 µM | 0.743 µM | 1.6 µM |
| CCCCCCCCCCCCCC(=S)NCCCC[C@H](NC(=O)OCc1ccccc1)C(=O)Nc1ccccc1 | 39.6 µM | > 100 µM | 3.87 µM | 22.5 µM | 6.78 µM | > 100 µM | 2.3 µM | 8.25 µM | 5.3 µM | > 100 µM | 2.84 µM | 31.2 µM | 21.7 µM | > 100 µM | 4.52 µM | > 100 µM | 3.21 µM | > 100 µM | 3.51 µM | > 100 µM |
| COc1cc(/C=C\[N+](=O)[O-])ccc1O | 2.39 µM | 6.51 µM | 2.36 µM | 5.74 µM | 2.41 µM | 5.93 µM | 1.26 µM | 3.73 µM | 1.74 µM | 3.39 µM | 1.3 µM | 3.02 µM | 12.7 µM | 25.9 µM | 2.33 µM | 9.95 µM | 2.99 µM | 10.6 µM | 1.78 µM | 3.99 µM |
| O=c1cc(-c2cccc(F)c2)[nH]c2cc3c(cc12)OCO3 | – | > 100 µM | – | 0.364 µM | – | 1.63 µM | – | 5.23 µM | 0.326 µM | 6.4 µM and > 54.4 µM | 0.172 µM | 0.406 µM and 0.112 µM | 0.265 µM | 1.01 µM and 1.03 µM | – | > 100 µM | 0.268 µM | 9.58 µM and 49.1 µM | – | > 64.9 µM |
| N#Cc1c(-c2cccs2)c2c(=S)[nH]c(=S)[nH]c2[nH]c1=S | 23.5 µM | 56.2 µM | 28.8 µM | > 100 µM | 24 µM | 78.7 µM | 89.4 µM | > 100 µM | 18.2 µM | 39.8 µM | 29.1 µM | 79 µM | 46 µM | > 100 µM | 28.1 µM | 98.8 µM | 30.2 µM | > 100 µM | 36.3 µM | > 100 µM |
| CC(CO)(CO)N=Cc1cc(I)cc(I)c1O | – | 36.4 µM | – | 35.3 µM | – | 29.8 µM | – | 32.9 µM | – | 24.2 µM | – | 49.4 µM | – | 41.9 µM | – | > 100 µM | – | 28.3 µM | – | 30.7 µM |
| CC1(C)N=C(N)N=C(N)N1c1ccc(CCCCc2ccc(S(=O)(=O)F)cc2)cc1 | 7.97 µM | 20.9 µM | 2.28 µM | 19.8 µM | 0.833 µM | 28.2 µM | 4.48 µM | 27.8 µM | 0.488 µM | 15 µM | 2.43 µM | 16.2 µM | 15.5 µM | > 85 µM | 2.09 µM | 10.3 µM | 0.467 µM | 15 µM | 0.368 µM | 16.8 µM |
| O=C(/C=C/c1ccc(Cl)cc1)c1ccc(Cl)cc1Cl | 7.44 µM | 14.8 µM | 12.1 µM | 30.8 µM | 7.72 µM | 15.7 µM | 9.39 µM | 19.4 µM | 1.15 µM | 5.62 µM | 8.15 µM | 16.8 µM | 6.84 µM | 14.5 µM | 3.25 µM | 22.3 µM | 7.23 µM | 14.1 µM | 1.28 µM | 12.4 µM |
| CC(=O)Nc1cccc(-n2c(=O)n(C3CC3)c(=O)c3c(Nc4ccc(I)cc4F)n(C)c(=O)c(C)c32)c1 | 6.33 µM and > 9.61 µM | 35.5 µM and > 10 µM | < 0.01 µM and 0.00125 µM | – | 3.36 µM and > 4.01 µM | 93.9 µM and > 10 µM | < 0.01 µM and 0.011 µM | – | < 0.0122 µM and 0.0262 µM | 5.46 µM and > 10 µM | 3.79 µM and > 2.33 µM | 22 µM and > 10 µM | 8.58 µM | > 85.4 µM | 14.9 µM and > 10 µM | > 77 µM | 0.401 µM | 32 µM and > 10 µM | < 0.01 µM and 0.00184 µM | 0.0182 µM |
